Assay results taken from the NIST ThermoML archive (doi:10.1021/je060271a).
“And” between values parts separate entries of the source, which are not always exact repeats. Equal entries are not always repeated.

Details: 283.14 K, Liquid, Vibrating tube method

CCCCCCC(=O)OCC(COC(=O)CCCCCC)(COC(=O)CCCCCC)COC(=O)CCCCCC [pentaerythritol tetraheptanoate]
Details | mass density
99.9 kPa | 986 kg/m3
100.4 kPa | 985.9 kg/m3 and 986 kg/m3
100.6 kPa | 985.8 kg/m3
100.8 kPa | 985.9 kg/m3
100.9 kPa | 985.9 kg/m3
104.1 kPa | 985.9 kg/m3
108.1 kPa | 985.9 kg/m3
116.6 kPa | 986 kg/m3
124.9 kPa | 986 kg/m3
130.8 kPa | 986 kg/m3
135.4 kPa | 985.9 kg/m3
142 kPa | 985.9 kg/m3
146.3 kPa | 986 kg/m3
150.6 kPa | 986 kg/m3
154.5 kPa | 986 kg/m3
158.5 kPa | 986 kg/m3
164.2 kPa | 986 kg/m3
168.9 kPa | 985.9 kg/m3
174.6 kPa | 986 kg/m3
181.1 kPa | 986 kg/m3
189.8 kPa | 986 kg/m3
198.1 kPa | 986 kg/m3
208.7 kPa | 986 kg/m3
218.8 kPa | 986 kg/m3
231 kPa | 985.9 kg/m3
246.9 kPa | 986 kg/m3
262.2 kPa | 986 kg/m3
279.6 kPa | 985.9 kg/m3
304.3 kPa | 985.9 kg/m3
328.1 kPa | 986 kg/m3
354.9 kPa | 986 kg/m3
383.4 kPa | 986.2 kg/m3
410.5 kPa | 986.1 kg/m3
428.6 kPa | 986.2 kg/m3
445.6 kPa | 986.1 kg/m3
459.5 kPa | 986.2 kg/m3
470.3 kPa | 986.1 kg/m3
483.1 kPa | 986.2 kg/m3
493.7 kPa | 986.2 kg/m3
504.3 kPa | 986.1 kg/m3
518.6 kPa | 986.2 kg/m3
531.3 kPa | 986.2 kg/m3
543.6 kPa | 986.2 kg/m3
560.1 kPa | 986.2 kg/m3
574.5 kPa | 986.2 kg/m3
588.8 kPa | 986.2 kg/m3
607.2 kPa | 986.2 kg/m3
623.7 kPa | 986.2 kg/m3
641.4 kPa | 986.2 kg/m3
659.1 kPa | 986.3 kg/m3
682.8 kPa | 986.3 kg/m3
703.5 kPa | 986.3 kg/m3
725 kPa | 986.2 kg/m3
748.3 kPa | 986.2 kg/m3
777.3 kPa | 986.4 kg/m3
803.3 kPa | 986.3 kg/m3
830.4 kPa | 986.3 kg/m3
857.2 kPa | 986.4 kg/m3
881.9 kPa | 986.4 kg/m3
894.4 kPa | 986.4 kg/m3
910.2 kPa | 986.5 kg/m3
922.9 kPa | 986.5 kg/m3
936.1 kPa | 986.4 kg/m3
950.3 kPa | 986.3 kg/m3
964.4 kPa | 986.4 kg/m3
981.7 kPa | 986.3 kg/m3
997.4 kPa | 986.4 kg/m3
1013.2 kPa | 986.5 kg/m3
1029.5 kPa | 986.4 kg/m3
1046.2 kPa | 986.4 kg/m3
1066 kPa | 986.6 kg/m3
1084 kPa | 986.4 kg/m3
1102.6 kPa | 986.5 kg/m3
1119.8 kPa | 986.5 kg/m3
1142.7 kPa | 986.6 kg/m3
1162 kPa | 986.6 kg/m3
1186.3 kPa | 986.5 kg/m3
1207.3 kPa | 986.5 kg/m3
1229.4 kPa | 986.6 kg/m3
1252.5 kPa | 986.5 kg/m3
1277.3 kPa | 986.7 kg/m3
1301.1 kPa | 986.6 kg/m3
1329.6 kPa | 986.7 kg/m3
1354.8 kPa | 986.6 kg/m3
1386.2 kPa | 986.6 kg/m3
1412.2 kPa | 986.7 kg/m3
1440.9 kPa | 986.6 kg/m3
1469.5 kPa | 986.6 kg/m3
1505.1 kPa | 986.6 kg/m3
1536 kPa | 986.8 kg/m3
1568.8 kPa | 986.7 kg/m3
1609.6 kPa | 986.8 kg/m3
1645.7 kPa | 986.8 kg/m3
1682.5 kPa | 986.8 kg/m3
1719 kPa | 986.8 kg/m3
1765.3 kPa | 986.9 kg/m3
1804.9 kPa | 986.9 kg/m3
1848.1 kPa | 986.9 kg/m3
1898.4 kPa | 986.8 kg/m3
1940.3 kPa | 987 kg/m3
1966.1 kPa | 986.9 kg/m3
1976.7 kPa | 987 kg/m3
1988.3 kPa | 987.1 kg/m3
2001 kPa | 987 kg/m3
2021 kPa | 987 kg/m3
2110 kPa | 987 kg/m3
2201.2 kPa | 987.1 kg/m3
2343.8 kPa | 987.2 kg/m3
2462.5 kPa | 987.4 kg/m3
2487.8 kPa | 987.3 kg/m3
2506.9 kPa | 987.3 kg/m3
2521.6 kPa | 987.2 kg/m3
2536.4 kPa | 987.3 kg/m3
2553.4 kPa | 987.3 kg/m3
2568.1 kPa | 987.2 kg/m3
2582.9 kPa | 987.4 kg/m3
2600 kPa | 987.4 kg/m3
2614.3 kPa | 987.4 kg/m3
2628.5 kPa | 987.3 kg/m3
2642.2 kPa | 987.3 kg/m3
2656.6 kPa | 987.4 kg/m3
2675.1 kPa | 987.4 kg/m3
2688.8 kPa | 987.5 kg/m3
2704.6 kPa | 987.4 kg/m3
2719.9 kPa | 987.5 kg/m3
2736 kPa | 987.6 kg/m3
2751.8 kPa | 987.5 kg/m3
2766.5 kPa | 987.5 kg/m3
2800.3 kPa | 987.5 kg/m3
2816.5 kPa | 987.5 kg/m3
2832.1 kPa | 987.5 kg/m3
2851.8 kPa | 987.5 kg/m3
2867.8 kPa | 987.5 kg/m3
2885.5 kPa | 987.5 kg/m3
2902.1 kPa | 987.6 kg/m3
2918.6 kPa | 987.6 kg/m3
2935.2 kPa | 987.6 kg/m3
2954.3 kPa | 987.6 kg/m3
2972 kPa | 987.8 kg/m3
2987.9 kPa | 987.4 kg/m3
3008.9 kPa | 987.6 kg/m3
3025.6 kPa | 987.6 kg/m3
3043.9 kPa | 987.6 kg/m3
3062.1 kPa | 987.7 kg/m3
3082.8 kPa | 987.8 kg/m3
3101.3 kPa | 987.7 kg/m3
3118.5 kPa | 987.7 kg/m3
3140.8 kPa | 987.7 kg/m3
3158.5 kPa | 987.7 kg/m3
3176.4 kPa | 987.8 kg/m3
3198.6 kPa | 987.7 kg/m3
3218.2 kPa | 987.7 kg/m3
3237.6 kPa | 987.8 kg/m3
3256.6 kPa | 987.8 kg/m3
3279 kPa | 987.8 kg/m3
3300 kPa | 987.8 kg/m3
3320.3 kPa | 987.7 kg/m3
3339.7 kPa | 987.8 kg/m3
3362.4 kPa | 987.8 kg/m3
3382.2 kPa | 987.9 kg/m3
3402.9 kPa | 987.8 kg/m3
3422.4 kPa | 987.9 kg/m3
3448.4 kPa | 987.9 kg/m3
3468.1 kPa | 987.9 kg/m3
3488.6 kPa | 987.9 kg/m3
3515.4 kPa | 987.8 kg/m3
3535.7 kPa | 988 kg/m3
3561.2 kPa | 987.9 kg/m3
3584.9 kPa | 987.9 kg/m3
3606.2 kPa | 987.9 kg/m3
3628.7 kPa | 988 kg/m3
3652.3 kPa | 987.9 kg/m3
3675 kPa | 988 kg/m3
3703.2 kPa | 988 kg/m3
3725.9 kPa | 988 kg/m3
3750.4 kPa | 988.1 kg/m3
3777.7 kPa | 988.1 kg/m3
3800.4 kPa | 988.1 kg/m3
3825.2 kPa | 988 kg/m3
3853.3 kPa | 988 kg/m3
3879.1 kPa | 988 kg/m3
3903.5 kPa | 988 kg/m3
3929.1 kPa | 988.2 kg/m3
3959.3 kPa | 988.2 kg/m3
3983.7 kPa | 988.1 kg/m3
4010 kPa | 988.4 kg/m3
4036.2 kPa | 988.2 kg/m3
4066.7 kPa | 988.2 kg/m3
4093.2 kPa | 988.2 kg/m3
4121.2 kPa | 988.2 kg/m3
4152.6 kPa | 988.3 kg/m3
4181.1 kPa | 988.3 kg/m3
4209.5 kPa | 988.3 kg/m3
4236.7 kPa | 988.3 kg/m3
4257.5 kPa | 988.4 kg/m3
4379.6 kPa | 988.4 kg/m3
4380.1 kPa | 988.4 kg/m3
4380.5 kPa | 988.4 kg/m3
4380.8 kPa | 988.4 kg/m3
4381 kPa | 988.4 kg/m3
4381.5 kPa | 988.3 kg/m3
4381.9 kPa | 988.6 kg/m3
4382.2 kPa | 988.4 kg/m3
4382.4 kPa | 988.4 kg/m3
4382.6 kPa | 988.3 kg/m3 and 988.5 kg/m3
4382.7 kPa | 988.4 kg/m3
4382.9 kPa | 988.4 kg/m3 and 988.5 kg/m3
4383.1 kPa | 988.4 kg/m3
4383.2 kPa | 988.3 kg/m3 and 988.4 kg/m3
4383.4 kPa | 988.5 kg/m3 and 988.4 kg/m3
4383.6 kPa | 988.3 kg/m3 and 988.4 kg/m3 and 988.5 kg/m3
4383.8 kPa | 988.5 kg/m3 and 988.4 kg/m3
4383.9 kPa | 988.4 kg/m3 and 988.5 kg/m3 and 988.3 kg/m3
4384.1 kPa | 988.4 kg/m3 [middle of 5 runs]
4384.3 kPa | 988.4 kg/m3 and 988.5 kg/m3 and 988.3 kg/m3
4384.5 kPa | 988.4 kg/m3 and 988.5 kg/m3 and 988.3 kg/m3
4384.6 kPa | 988.5 kg/m3 and 988.4 kg/m3
4384.8 kPa | 988.4 kg/m3 and 988.3 kg/m3
4385 kPa | 988.4 kg/m3 and 988.3 kg/m3 and 988.5 kg/m3
4385.1 kPa | 988.4 kg/m3 and 988.3 kg/m3 and 988.5 kg/m3
4385.3 kPa | 988.4 kg/m3 and 988.5 kg/m3
4385.4 kPa | 988.4 kg/m3
4385.5 kPa | 988.4 kg/m3 and 988.3 kg/m3
